Experimental data: patent US8969565B2, “Imidazo[1,2-b]pyridazine-based compounds, compositions comprising them, and methods of their use” (Lexicon Pharmaceuticals, Inc., priority 2012, dated 2015)

Target: T1, AAK1 (Homo sapiens, UniProt Q2M2I8)
T1 construct: HA; expressed in transfected cells; host or cells: HEK293F
Experiment: HEK281 cell-based assay (phospho-mu2 Western blot in transfected HEK293F cells)
Settings: 3 hours incubation, read-out: CBA IC50
Protocol: HEK293F cells were cultured in media containing DMEM (Gibco, cat. #11965), 10% FBS (SAFC Biosciences, cat. #12103C), 1×GPS (glutamine, penicillin and streptomycin). On day one, cells were plated on a 10 cm dish so that they are ˜80% confluent at time of transfection. Roughly 12 million cells were in a 10 cm dish at time of transfection. On day two, each dish was transfected with 48 ug DNA and 144 ul Lipofectamine 2000 (Invitrogen, cat.#11668-019). The DNA was comprised of a mixture (per 10 cm dish) containing 3 ug AAK1/HA/pIRES (full length human, NCBI accession no. NP_055726.2), 45 μg Flag/AP2MI/pcDNA (full length human), and 1.5 ml OPTI-MEM. The Lipofectamine 2000 is made up of a mixture (per 10 cm dish) containing 144 μl Lipofectamine 2000 and 1.5 ml OPTI-MEM. Each mixture was transferred to individual 15 ml tubes and incubated at RT for 5 minutes, and then the two mixes were combined and incubated at RT for 20 minutes. Growth media was then aspirated from each 10 cm plate and replaced with 10 ml of DMEM+10% FBS (no GPS). Finally, 3 ml DNA/Lipofectamine mix was added to each 10 cm dish and mix gently followed by incubate of plate overnight at 37° C. and 5% CO2.
On day three, compounds were diluted in 100% DMSO at 1000× final concentration, followed by 3-fold serial dilutions for a total of 5 concentrations tested. Four compounds were tested per 10 cm dish. One ul of each compound dilution was then pipetted into a deep-well, 96-well plate, followed by addition of 500 μl DMEM+0.5% FBS into each well for a 2× final concentration of each compound. Cells were resuspended in a 10 cm dish by simple pipetting (HEK293 cells come off the plate that easy at this point) and then transferred to a 50 ml conical tube and pelleted by centrifugation at 1000 rpm for 5 min. Cell pellets were then resuspended in 2.75 ml DMEM+0.5% FBS per 10 cm dish and 100 μl of cell suspension transferred into each well of 96-well TC plate. Finally, 100 μl of 2× compound diluted in DMEM+0.5% FBS was then added into wells containing cell suspension for a 1× final concentration. Plates were then incubated at 37° C. and 5% CO2 for 3 hours followed by transferring of cell suspensions from each well into 12-tube PCR strips. The PCR strips were spun in a tip rack at 1000 rpm for 5 minutes to pellet cells and media was then removed by pipetting without disturbing the cell pellet.
To prepare for Western Blot analysis, cell pellets were resuspend in 40 ul 1×LDS-PAGE sample buffer (Invitrogen, cat.#NP0008)+2× Halt phophatase and protease inhibitor cocktail (Thermo Scientific, cat.#1861284), followed by sonicating each with microtip sonicator set at 5 for 8-10 seconds. Five ul of 10× NuPage Sample Reducing Agent (with 50 mM DTT) was to each sample followed by heat denaturing at 70 C for 10 min on PCR machine. A total of 10 μl per sample was loaded into each lane of a 4-20% Tris-Glycine Criterion 26-well gel (Biorad, cat.#345-0034) for the phospho-mu2 blot and 10 μl per lane in a 4-12% Bis-Tris (+MES buffer) NuPAGE 26-well gel (Invitrogen, cat.#WG1403BX10) for the mu2 blot. For controls, 2 ng of phospho-mu2 or 20 ng mu2/Flag proteins were loaded in the last well of each gel. After SDS-PAGE, samples on each gel were transferred to PVDF membrane using an iBlot and membranes were blocked for one hour in TBST+5% milk, followed by wash 3× for 5-10 min with TBST. Criterion gels were probed with rabbit anti-phospho-mu2 (1:5000; a rabbit polyclonal antibody produced by New England Peptide and affinity purified at Lexicon) in TBST+5% BSA, whereas, NuPAGE gels were probed with mouse anti-Flag (1:500; Sigma, cat.#F1804) in TBST+5% milk, and these primary antibodies were incubated overnight at 4° C. on a rocker.

T1 sequence (Q2M2I8 1-863 isoform Q2M2I8-2): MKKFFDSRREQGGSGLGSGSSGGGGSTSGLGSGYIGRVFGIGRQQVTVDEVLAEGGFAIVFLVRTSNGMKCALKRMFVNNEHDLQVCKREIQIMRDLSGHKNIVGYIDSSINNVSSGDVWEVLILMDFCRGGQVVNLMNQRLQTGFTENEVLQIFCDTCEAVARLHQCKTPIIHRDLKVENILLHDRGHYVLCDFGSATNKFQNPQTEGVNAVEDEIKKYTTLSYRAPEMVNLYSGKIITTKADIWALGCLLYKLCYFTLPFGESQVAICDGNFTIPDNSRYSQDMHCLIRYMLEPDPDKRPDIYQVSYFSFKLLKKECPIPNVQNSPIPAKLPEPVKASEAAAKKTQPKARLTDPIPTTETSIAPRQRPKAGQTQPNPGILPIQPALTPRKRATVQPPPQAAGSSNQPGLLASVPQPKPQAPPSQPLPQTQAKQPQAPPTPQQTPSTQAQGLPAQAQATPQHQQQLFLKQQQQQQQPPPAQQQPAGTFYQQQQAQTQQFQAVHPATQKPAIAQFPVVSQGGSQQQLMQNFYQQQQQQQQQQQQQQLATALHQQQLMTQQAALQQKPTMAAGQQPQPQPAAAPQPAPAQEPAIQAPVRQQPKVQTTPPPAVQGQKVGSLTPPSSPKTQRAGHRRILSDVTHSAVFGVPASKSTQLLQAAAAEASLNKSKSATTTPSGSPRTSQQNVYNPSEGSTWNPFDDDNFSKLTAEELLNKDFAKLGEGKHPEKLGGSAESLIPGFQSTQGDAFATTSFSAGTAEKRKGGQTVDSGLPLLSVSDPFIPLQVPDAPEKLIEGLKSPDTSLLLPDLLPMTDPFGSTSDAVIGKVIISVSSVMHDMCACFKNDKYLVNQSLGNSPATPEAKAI

| SMILES | IC50 [nM] |
| --- | --- |
| CCCCNc1ccc2ncc(-c3ccc(C(=O)NCCNC)c(F)c3)n2n1 [4-(6-(butylamino)imidazo[1,2-b]pyridazin-3-yl)-2-fluoro-N-(2-(methylamino)ethyl)benzamide] | ≤ 100 |
| CCCCNc1ccc2ncc(-c3ccc(C(=O)NCCN(CC)CC)cc3)n2n1 [4-(6-(butylamino)imidazo[1,2-b]pyridazin-3-yl)-N-(2-(diethylamino)ethyl)benzamide] | ≤ 10 |
| CCCCNc1ccc2ncc(-c3ccc(C(=O)NCCN(C)C)cc3)n2n1 [4-(6-(butylamino)imidazo[1,2-b]pyridazin-3-yl)-N-(2-(dimethylamino)ethyl)benzamide] | ≤ 100 |
| CCCCNc1ccc2ncc(-c3ccc(C(=O)NCCNC)cc3)n2n1 [4-(6-(butylamino)imidazo[1,2-b]pyridazin-3-yl)-N-(2-(methylamino)ethyl)benzamide] | ≤ 100 |
| CCCCNc1ccc2ncc(-c3ccc(C(=O)NCCN4CCCC4)cc3)n2n1 [4-(6-(butylamino)imidazo[1,2-b]pyridazin-3-yl)-N-(2-(pyrrolidin-1-yl)ethyl)benzamide] | ≤ 100 |
| CCCCNc1ccc2ncc(-c3ccc(C(N)=O)cc3)n2n1 [4-(6-(butylamino)imidazo[1,2-b]pyridazin-3-yl)benzamide] | ≤ 100 |
| CC(C)(O)CCNc1ccc2ncc(-c3ccc(CN)cc3)n2n1 [4-((3-(4-(aminomethyl)phenyl)imidazo[1,2-b]pyridazin-6-yl)amino)-2-methylbutan-2-ol] | ≤ 100 |
| CCCCNc1ccc2ncc(-c3ccc(C(N)=O)s3)n2n1 [5-(6-(butylamino)imidazo[1,2-b]pyridazin-3-yl)thiophene-2-carboxamide] | ≤ 1000 |
| CCCNc1ccc2ncc(-c3ccc(C=O)s3)n2n1 [5-(6-(propylamino)imidazo[1,2-b]pyridazin-3-yl)thiophene-2-carbaldehyde] | ≤ 1000 |
| CCCCNc1ccc2ncc(C(=O)Nc3cn[nH]c3)n2n1 [6-(butylamino)-N-(1H-pyrazol-4-yl)imidazo[1,2-b]pyridazine-3-carboxamide] | ≤ 1000 |
| CCOC(=O)N1CCC[C@H]1CNc1ccc2ncc(-c3ccc(C4CCCN4)cc3)n2n1 (stereo partly drawn) [(2S)-ethyl 2-(((3-(4-(pyrrolidin-2-yl)phenyl)imidazo[1,2-b]pyridazin-6-yl)amino)methyl)pyrrolidine-1-carboxylate] | ≤ 100 |
| COC(=O)N1CCC[C@H]1CNc1ccc2ncc(-c3ccc(C4CCCN4)cc3)n2n1 (stereo partly drawn) [(2S)-methyl 2-(((3-(4-(pyrrolidin-2-yl)phenyl)imidazo[1,2-b]pyridazin-6-yl)amino)methyl)pyrrolidine-1-carboxylate] | ≤ 100 |
| CCCCNc1ccc2ncc(-c3ccc(C(=O)N4CCC(N)CC4)cc3)n2n1 [(4-aminopiperidin-1-yl)(4-(6-(butylamino)imidazo[1,2-b]pyridazin-3-yl)phenyl)methanone] | ≤ 1000 |
| CC(C)OC(=O)N(C)CCNc1ccc2ncc(-c3ccc([C@H]4CCCN4)cc3)n2n1 [(R)-isopropyl methyl(2-((3-(4-(pyrrolidin-2-yl)phenyl)imidazo[1,2-b]pyridazin-6-yl)amino)ethyl)carbamate] | ≤ 100 |
| CCCCNc1ccc2ncc(-c3ccc([C@H]4CCCN4)cc3)n2n1 [(R)—N-butyl-3-(4-(pyrrolidin-2-yl)phenyl)imidazo[1,2-b]pyridazin-6-amine] | ≤ 1000 |
| COc1ccccc1-c1cnc2ccc(NC[C@@H]3CCCN3C(=O)CC(C)C)nn12 [(S)-1-(2-(((3-(2-methoxyphenyl)imidazo[1,2-b]pyridazin-6-yl)amino)methyl)pyrrolidin-1-yl)-3-methylbutan-1-one] | ≤ 10 |

| SMILES | IC50 [nM] |
| --- | --- |
| COc1ccccc1-c1cnc2ccc(NC[C@@H]3CCCN3C(C)=O)nn12 [(S)-1-(2-(((3-(2-methoxyphenyl)imidazo[1,2-b]pyridazin-6-yl)amino)methyl)pyrrolidin-1-yl)ethanone] | ≤ 100 |
| COc1cnccc1-c1cnc2ccc(NC[C@@H]3CCCN3C(=O)CC(C)C)nn12 [(S)-1-(2-(((3-(3-methoxypyridin-4-yl)imidazo[1,2-b]pyridazin-6-yl)amino)methyl)pyrrolidin-1-yl)-3-methylbutan-1-one] | ≤ 10 |
| COc1cnccc1-c1cnc2ccc(NC[C@@H]3CCCN3C(C)=O)nn12 [(S)-1-(2-(((3-(3-methoxypyridin-4-yl)imidazo[1,2-b]pyridazin-6-yl)amino)methyl)pyrrolidin-1-yl)ethanone] | ≤ 100 |
| CC(C)CC(=O)N1CCC[C@H]1CNc1ccc2ncc(-c3ccc(CN)cc3)n2n1 [(S)-1-(2-(((3-(4-(aminomethyl)phenyl)imidazo[1,2-b]pyridazin-6-yl)amino)methyl)pyrrolidin-1-yl)-3-methylbutan-1-one] | ≤ 10 |
| CC(C)CC(=O)N1CCC[C@H]1CNc1ccc2ncc(Br)n2n1 [(S)-1-(2-(((3-bromoimidazo[1,2-b]pyridazin-6-yl)amino)methyl)pyrrolidin-1-yl)-3-methylbutan-1-one] | ≤ 100 |
| CCCCNc1ccc2ncc(-c3ccc(CNC(=O)[C@@H](N)CC(C)C)cc3)n2n1 [(S)-2-amino-N-(4-(6-(butylamino)imidazo[1,2-b]pyridazin-3-yl)benzyl)-4-methylpentanamide] | ≤ 100 |
| NCc1ccc(-c2cnc3ccc(NC[C@@H]4CCCO4)nn23)cc1 [(S)-3-(4-(aminomethyl)phenyl)-N-((tetrahydrofuran-2-yl)methyl)imidazo[1,2-b]pyridazin-6-amine] | ≤ 100 |
| CC(C)CC(=O)N1CCC[C@H]1CNc1ccc2ncc(-c3ccncc3)n2n1 [(S)-3-methyl-1-(2-(((3-(pyridin-4-yl)imidazo[1,2-b]pyridazin-6-yl)amino)methyl)pyrrolidin-1-yl)butan-1-one] | ≤ 100 |
| CCCCNc1ccc2ncc(-c3ccc([C@@H]4CCCN4)cc3)n2n1 [(S)-N-butyl-3-(4-(pyrrolidin-2-yl)phenyl)imidazo[1,2-b]pyridazin-6-amine] | ≤ 100 |
| CCOC(=O)N1CCC[C@H]1CNc1ccc2ncc(-c3ccccc3OC)n2n1 [(S)-ethyl 2-(((3-(2-methoxyphenyl)imidazo[1,2-b]pyridazin-6-yl)amino)methyl)pyrrolidine-1-carboxylate] | ≤ 100 |
| CCOC(=O)N1CCC[C@H]1CNc1ccc2ncc(-c3ccncc3OC)n2n1 [(S)-ethyl 2-(((3-(3-methoxypyridin-4-yl)imidazo[1,2-b]pyridazin-6-yl)amino)methyl)pyrrolidine-1-carboxylate] | ≤ 100 |
| CCOC(=O)N1CCC[C@H]1CNc1ccc2ncc(-c3ccc(CN)cc3)n2n1 [(S)-ethyl 2-(((3-(4-(aminomethyl)phenyl)imidazo[1,2-b]pyridazin-6-yl)amino)methyl)pyrrolidine-1-carboxylate] | ≤ 10 |
| CCOC(=O)N1CCC[C@H]1CNc1ccc2ncc(-c3ccncc3)n2n1 [(S)-ethyl 2-(((3-(pyridin-4-yl)imidazo[1,2-b]pyridazin-6-yl)amino)methyl)pyrrolidine-1-carboxylate] | ≤ 100 |
| CCOC(=O)N1CCC[C@H]1CNc1ccc2ncc(Br)n2n1 [(S)-ethyl 2-(((3-bromoimidazo[1,2-b]pyridazin-6-yl)amino)methyl)pyrrolidine-1-carboxylate] | ≤ 100 |
| CCOC(=O)N(C)[C@H]1CCN(c2ccc3ncc(-c4ccc(C)nc4OC)n3n2)C1 [(S)-ethyl (1-(3-(2-methoxy-6-methylpyridin-3-yl)imidazo[1,2-b]pyridazin-6-yl)pyrrolidin-3-yl)(methyl)carbamate] | ≤ 100 |
